The target in this assay is T1, human 5-HT7 receptor (Homo sapiens, UniProt P34969).
T1 construct: expressed in transfected cells; host or cells: CHO cells
T1 sequence (P34969 whole entry): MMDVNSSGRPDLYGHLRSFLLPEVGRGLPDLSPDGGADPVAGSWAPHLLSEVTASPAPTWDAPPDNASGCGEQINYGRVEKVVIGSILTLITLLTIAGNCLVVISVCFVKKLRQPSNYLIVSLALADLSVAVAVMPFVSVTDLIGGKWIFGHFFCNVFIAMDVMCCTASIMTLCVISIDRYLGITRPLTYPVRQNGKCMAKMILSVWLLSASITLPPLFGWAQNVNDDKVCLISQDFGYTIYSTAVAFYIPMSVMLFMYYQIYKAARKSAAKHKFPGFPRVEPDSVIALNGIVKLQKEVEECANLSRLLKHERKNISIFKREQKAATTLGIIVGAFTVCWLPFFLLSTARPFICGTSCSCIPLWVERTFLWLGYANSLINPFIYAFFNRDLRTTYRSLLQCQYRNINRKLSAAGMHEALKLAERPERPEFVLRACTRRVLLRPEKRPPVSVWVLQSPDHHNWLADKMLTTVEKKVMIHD
Nature of the assay: 5-HT7 Receptor Binding Assay. The settings on record: membranes of CHO cells expressing human 5-HT7 receptor; 1 nM 3H-5-carboxamidotryptamine; 25° C., 60 minutes. The gist of the method: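 Competition against 1 nM ^3H-5-carboxamidotryptamine over 0.1–1000 nM compound, 60 min, 25° C, 50 mM HEPES, 30 ug membrane protein from CHO cells expressing the human receptor. 10 uM serotonin defined non-specific binding. Bound label counted after filtration; IC50 from non-linear regression.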
In general, IC50 refers to the concentration that inhibits the measured activity by half. A higher IC50 goes with lower potency. The molecule `Cc1cc(N[C@@H](C)c2ccccc2)nc(NCCc2cccc(F)c2)n1` [N^2-[2-(3-Fluorophenyl)ethyl]-6-methyl-N^4-[(1S)-1-phenylethyl]pyrimidine-2,4-diamine] showed an IC50 of at most 50 nM.

Molecule `CC[C@H](Nc1nc(N)nc(NCCc2cccc(F)c2)n1)c1ccccc1` [Compound 63, N^2-[2-(3-Fluorophenyl)ethyl]-N^4-[(1S)-1-phenylpropyl]-1,3,5-triazine-2,4,6-triamine] came in with an IC50 of at most 50 nM.

Turning to `CC[C@H](Nc1nc(N)nc(NCCc2cccc(C(F)(F)F)c2)n1)c1ccccc1` [Compound 36, N^2-[(1S)-1-Phenylpropyl]-N^4-[2-(3-(trifluoromethyl)phenyl)ethyl]-1,3,5-triazine-2,4,6-triamine], the IC50 lay in the range of 101 to 200 nM. The value for `CC(CNc1nccc(NC(C)c2ccccc2)n1)c1ccccc1` (stereo not shown) [N^4-(1-Phenylethyl)-N^2-(2-phenylpropyl)pyrimidine-2,4-diamine] was 51 to 100 nM. In turn, `c1ccc(CCNc2nccc(NCc3ccccc3)n2)cc1` [N^2-(2-Phenylethyl)-N^4-(phenylmethyl)pyrimidine-2,4-diamine] registered an IC50 of at most 50 nM. Molecule `Fc1ccc(CNc2ccnc(NCCc3ccccc3)n2)cc1C(F)(F)F` [N^4-[4-Fluoro-3-(trifluoromethyl)phenylmethyl]-N^2-(2-phenylethyl)pyrimidine-2,4-diamine] returned an IC50 of 101 to 200 nM.

Molecule `CC(Nc1ccnc(NCCc2cccc(Cl)c2)n1)c1ccccc1` (stereo not shown) [N^2-[2-(3-Chlorophenyl)ethyl]-N^4-(1-phenylethyl)pyrimidine-2,4-diamine] yielded an IC50 of at most 50 nM.

`Fc1cccc(CNc2ccnc(NCCc3ccccc3)n2)c1` [N^4-(3-Fluorophenylmethyl)-N^2-(2-phenylethyl)pyrimidine-2,4-diamine]: the IC50 is at most 50 nM.

As to `Cc1ccc(CCNc2nccc(NC(C)c3ccccc3)n2)cc1` (stereo not shown) [N^2-[2-(4-Methylphenyl)ethyl]-N^4-(1-phenylethyl)pyrimidine-2,4-diamine], the IC50 is at most 50 nM. Molecule `C[C@H](Nc1ccnc(NCCOc2ccccc2)n1)c1ccccc1` [N^2-(2-Phenoxyethyl)-N^4-[(1S)-1-phenylethyl]pyrimidine-2,4-diamine] came in with an IC50 of at most 50 nM. The result for `CC(Nc1ccnc(NCCn2ccc3ccccc32)n1)c1ccccc1` (stereo not shown) [Compound 28, N^2-[2-(1H-Indol-1-yl)ethyl]-N^4-(1-phenylethyl)pyrimidine-2,4-diamine] reads at most 50 nM. For `Fc1ccc(CNc2ccnc(NCCOc3ccccc3)n2)cc1F` [N^4-(3,4-Difluorophenylmethyl)-N^2-(2-phenoxyethyl)pyrimidine-2,4-diamine], the IC50 is at most 50 nM. The molecule `CC(Nc1ccnc(NCCc2cccc3c2OCO3)n1)c1ccccc1` (stereo not shown) [N^2-[2-(4-Benzodioxolyl)ethyl]-N^4-(1-phenylethyl)pyrimidine-2,4-diamine] displayed an IC50 of 101 to 200 nM. The value for `Ic1cccc(CNc2ccnc(NCCc3ccccc3)n2)c1` [Compound 25, N^4-(3-Iodophenylmethyl)-N^2-(2-phenylethyl)pyrimidine-2,4-diamine] was at most 50 nM. The value for `CC[C@H](Nc1nc(N)nc(NCCc2ccccc2F)n1)c1ccccc1` [Compound 51, N^2-[2-(2-Fluorophenyl)ethyl]-N^4-[(1S)-1-phenylpropyl]-1,3,5-triazine-2,4,6-triamine] was 51 to 100 nM.

Regarding `CC[C@H](Nc1nc(N)nc(NCCc2ccc(Cl)c(Cl)c2)n1)c1ccccc1` [Compound 33, N^2-[2-(3,4-Dichlorophenyl)ethyl]-N^4-[(1S)-1-phenylpropyl]-1,3,5-triazine-2,4,6-triamine], the IC50 fell in the range of 101 to 200 nM. The value for `CC(Nc1ccnc(NCCc2cccc(F)c2)n1)c1ccccc1` (stereo not shown) [N^2-[2-(3-Fluorophenyl)ethyl]-N^4-(1-phenylethyl)pyrimidine-2,4-diamine] was at most 50 nM; that for `c1ccc(CCNc2nccc(NCc3cccc4c3OCO4)n2)cc1` [N^4-(4-Benzodioxolylmethyl)-N^2-(2-phenylethyl)pyrimidine-2,4-diamine] was at most 50 nM. The value for `Fc1cc(CNc2ccnc(NCCOc3ccccc3)n2)cc(C(F)(F)F)c1` [N^4-[3-Fluoro-5-(trifluoromethyl)phenylmethyl]-N^2-(2-phenoxyethyl)pyrimidine-2,4-diamine] was 101 to 200 nM; that for `C[C@H](Nc1nc(N)nc(NCCc2cccc(Cl)c2)n1)c1ccc([N+](=O)[O-])cc1` [Compound 58, N^2-[2-(3-Chlorophenyl)ethyl]-N^4-[(1S)-1-(4-nitrophenyl)ethyl]-1,3,5-triazine-2,4,6-triamine] was 51 to 100 nM; that for `Clc1ccc(CNc2ccnc(NCCOc3ccccc3)n2)cc1Cl` [N^4-(3,4-Dichlorophenylmethyl)-N^2-(2-phenoxyethyl)pyrimidine-2,4-diamine] was 101 to 200 nM. The result for `C[C@H](Nc1nc(N)nc(NCCc2ccc(N)cc2)n1)c1ccc([N+](=O)[O-])cc1` [Compound 78, N^2-[2-(4-Aminophenyl)ethyl]-N^4-[(1S)-1-(4-nitrophenyl)ethyl]-1,3,5-triazine-2,4,6-triamine] reads at most 50 nM. As to `COc1ccc(CCNc2nc(C)cc(N[C@@H](C)c3ccccc3)n2)cc1Br` [N^2-[2-(3-Bromo-4-methoxyphenyl)ethyl]-6-methyl-N^4-[(1S)-1-phenylethyl]pyrimidine-2,4-diamine], the IC50 lay in the range of 51 to 100 nM. The result for `CC(Nc1ccnc(NCCc2ccccc2)n1)c1ccc(F)cc1` (stereo not shown) [N^4-[1-(4-Fluorophenyl)ethyl]-N^2-(2-phenylethyl)pyrimidine-2,4-diamine] reads at most 50 nM; that for `Fc1cc(F)cc(CNc2ccnc(NCCOc3ccccc3)n2)c1` [N^4-(3,5-Difluorophenylmethyl)-N^2-(2-phenoxyethyl)pyrimidine-2,4-diamine], 101 to 200 nM. Molecule `COc1ccccc1CCNc1nc(C)cc(N[C@@H](C)c2ccccc2)n1` [N^2-[2-(2-Methoxyphenyl)ethyl]-6-methyl-N^4-[(1S)-1-phenylethyl]pyrimidine-2,4-diamine] gave an IC50 of at most 50 nM.

Consider `CC(Nc1ccnc(NCCc2cccc(O)c2)n1)c1ccccc1` (stereo not shown) [Compound 21, N^2-[2-(3-Hydroxyphenyl)ethyl]-N^4-(1-phenylethyl)pyrimidine-2,4-diamine], for which the concentration for half-maximal inhibition (IC50) was at most 50 nM. The result for `FC(F)(F)c1ccc(CNc2ccnc(NCCc3ccccc3)n2)cc1` [N^2-(2-Phenylethyl)-N^4-[4-(trifluoromethyl)phenylmethyl]pyrimidine-2,4-diamine] reads 101 to 200 nM. The value for `C[C@H](Nc1nc(N)nc(NCCc2ccc(F)cc2)n1)c1ccc(Br)cc1` [Compound 70, N^2-[(1S)-1-(4-Bromophenyl)ethyl]-N^4-[2-(4-fluorophenyl)ethyl]-1,3,5-triazine-2,4,6-triamine] was at most 50 nM. Regarding `NC(=O)c1cccc(CNc2ccnc(NCCOc3ccccc3)n2)c1` [Compound 6, N^4-[3-(Aminocarbonyl)phenylmethyl]-N^2-(2-phenoxyethyl)pyrimidine-2,4-diamine], the IC50 lay in the range of 51 to 100 nM. `CC(Nc1ccnc(NCCc2ccccc2F)n1)c1ccccc1` (stereo not shown) [N^2-[2-(2-Fluorophenyl)ethyl]-N^4-(1-phenylethyl)pyrimidine-2,4-diamine] displayed an IC50 of at most 50 nM. The molecule `COc1cccc(CCNc2nc(N)nc(N[C@@H](C)c3ccc([N+](=O)[O-])cc3)n2)c1` [Compound 77, N^2-[2-(3-Methoxyphenyl)ethyl]-N^4-[(1S)-1-(4-nitrophenyl)ethyl]-1,3,5-triazine-2,4,6-triamine] returned an IC50 of at most 50 nM. The result for `Cc1ccc(CNc2ccnc(NCCOc3ccccc3)n2)cc1Cl` [N^4-(3-Chloro-4-methylphenylmethyl)-N^2-(2-phenoxyethyl)pyrimidine-2,4-diamine] reads at most 50 nM; that for `Fc1ccc(CNc2ccnc(NCCc3ccccc3)n2)cc1F` [N^4-(3,4-Difluorophenylmethyl)-N^2-(2-phenylethyl)pyrimidine-2,4-diamine], at most 50 nM; that for `C[C@H](Nc1ccnc(NCCOc2ccccc2)n1)c1cccc2ccccc12` [Compound 17, N^4-[(1S)-1-(1-Napthalenyl)ethyl]-N^2-(2-phenoxyethyl)pyrimidine-2,4-diamine], at most 50 nM. In turn, `CC(CNc1nc(N)nc(N[C@@H](C)c2ccccc2)n1)c1ccccc1` (stereo partly drawn) [Compound 37, N^2-[(1S)-1-Phenylethyl]-N^4-(2-phenylpropyl)-1,3,5-triazine-2,4,6-triamine] yielded an IC50 of 101 to 200 nM.

`Cc1cccc(CNc2ccnc(NCCOc3ccccc3)n2)c1` [N^4-(3-Methylphenylmethyl)-N^2-(2-phenoxyethyl)pyrimidine-2,4-diamine] showed an IC50 of at most 50 nM.

Regarding `Cc1ccc([C@H](C)Nc2ccnc(NCCOc3ccccc3)n2)cc1` [N^4-[(1S)-1-(4-Methylphenyl)ethyl]-N^2-(2-phenoxyethyl)pyrimidine-2,4-diamine], the IC50 was at most 50 nM. The result for `C[C@H](Nc1nc(N)nc(NC[C@H]2C[C@@H]2c2ccc(F)cc2)n1)c1ccccc1` [(S,S)-trans-N-[2-(4-Fluoro-phenyl)-cyclopropylmethyl]-N′-(1-phenyl-ethyl)-[1,3,5]triazine-2,4,6-triamine] reads at most 50 nM. The result for `Fc1ccc(CNc2ccnc(NCCc3ccccc3)n2)cc1Cl` [N^4-(3-Chloro-4-fluorophenylmethyl)-N^2-(2-phenylethyl)pyrimidine-2,4-diamine] reads at most 50 nM. `FC(F)(F)c1cccc(CNc2ccnc(NCCOc3ccccc3)n2)c1` [N^2-(2-Phenoxyethyl)-N^4-[3-(trifluoromethyl)phenylmethyl]pyrimidine-2,4-diamine] yielded an IC50 of at most 50 nM. The result for `COc1ccc(CCNc2nc(C)cc(N[C@@H](C)c3ccccc3)n2)cc1` [N^2-[2-(4-Methoxyphenyl)ethyl]-6-methyl-N^4-[(1S)-1-phenylethyl]pyrimidine-2,4-diamine] reads 101 to 200 nM.

In the case of `c1ccc(OCCNc2nccc(NCc3cccc4ccccc34)n2)cc1` [Compound 16, N^4-(1-Napthalenylmethyl)-N^2-(2-phenoxyethyl)pyrimidine-2,4-diamine], the IC50 was at most 50 nM.

Source of the values: US6630469B2, “5-HT7 receptor antagonists” (Bristol-Myers Squibb Company, priority 2000, dated 2003).
